From PubChem BioAssay AID256 (DTP/NCI, 2004)
Where “and” joins values, the source holds several entries; their conditions need not be identical. Equal entries are not always repeated. Toxic doses and inconclusive results are not listed. The calls were made as follows: active = survival T/C of 150% or more; inactive = T/C below 125% in these data.

Test system: CD2F1 mice, L1210 leukemia ip, survival T/C
Test: NCI In Vivo Anticancer Drug Screen. Data for tumor model L1210 Leukemia (intraperitoneal) in CD2F1 (CDF1) mice
Settings: higher = longer survival
Method in brief: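 Compound-dosed mice with transplantable tumor versus matched vehicle controls; endpoint ratio T/C reported.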

[1] = endpoint: mean survival time, dose: 100.0 mg/kg/injection, schedule: Q04DX003 (ip), vehicle: saline with Tween-80
[2] = endpoint: mean survival time, dose: 200.0 mg/kg/injection, schedule: Q04DX003 (ip), vehicle: saline with Tween-80

Measured: T/C

O=C(O)C(=O)O.[Ru].c1cnc2c(c1)ccc1cccnc12.c1cnc2c(c1)ccc1cccnc12
inactive: endpoint: mean survival time, dose: 3.13 mg/kg/injection, schedule: Q04DX003 (ip), vehicle: water 95 % of control | endpoint: mean survival time, dose: 6.25 mg/kg/injection, schedule: Q04DX003 (ip), vehicle: water 96 % of control | endpoint: mean survival time, dose: 12.5 mg/kg/injection, schedule: Q04DX003 (ip), vehicle: water 93 % of control | endpoint: mean survival time, dose: 25.0 mg/kg/injection, schedule: Q04DX003 (ip), vehicle: water 93 % of control | endpoint: mean survival time, dose: 50.0 mg/kg/injection, schedule: Q04DX003 (ip), vehicle: water 95 % of control | endpoint: mean survival time, dose: 100.0 mg/kg/injection, schedule: Q04DX003 (ip), vehicle: water 91 % of control | endpoint: mean survival time, dose: 200.0 mg/kg/injection, schedule: Q04DX003 (ip), vehicle: water 90 % of control

CCOC(=O)C(Cc1ccccc1Cl)(Cc1ccccc1Cl)c1ccccc1
inactive: [1] 93 % of control | [2] 98 % of control | endpoint: mean survival time, dose: 400.0 mg/kg/injection, schedule: Q04DX003 (ip), vehicle: saline with Tween-80 90 % of control

O=C=Nc1cccc2c(N=C=O)cccc12
inactive: endpoint: mean survival time, dose: 12.5 mg/kg/injection, schedule: Q01DX009 (ip), vehicle: saline with Tween-80 91 % of control | endpoint: mean survival time, dose: 25.0 mg/kg/injection, schedule: Q01DX009 (ip), vehicle: saline with Tween-80 102 % of control | endpoint: mean survival time, dose: 50.0 mg/kg/injection, schedule: Q01DX009 (ip), vehicle: saline with Tween-80 91 % of control

O=C(CCCl)OCCCl
inactive: [1] 102 % of control | [2] 92 % of control

CCC(C#N)C1=CCCCCC1 (stereo not given)
inactive: [1] 103 % of control

COc1cccc2c1C(=O)c1c(O)c3c(c(O)c1C2=O)C[C@@](O)(C(C)=O)C[C@@H]3OC1CC(N)C(O)C(C)O1 (stereo not given in full)
inactive: endpoint: mean survival time, dose: 0.06 mg/kg/injection, schedule: Q01DX009 (ip), vehicle: saline 103 % of control | endpoint: mean survival time, dose: 0.13 mg/kg/injection, schedule: Q01DX009 (ip), vehicle: saline 103 % of control | endpoint: mean survival time, dose: 0.2 mg/kg/injection, schedule: Q01DX009 (ip), vehicle: saline 105 % of control | endpoint: mean survival time, dose: 0.2 mg/kg/injection, schedule: Q01DX009 (ip), vehicle: water 100 % of control and 103 % of control and 108 % of control | endpoint: mean survival time, dose: 0.25 mg/kg/injection, schedule: Q01DX005 (ip), vehicle: water 101 % of control | endpoint: mean survival time, dose: 0.25 mg/kg/injection, schedule: Q01DX009 (ip), vehicle: saline 113 % of control and 120 % of control and 105 % of control | endpoint: mean survival time, dose: 0.39 mg/kg/injection, schedule: Q01DX009 (ip), vehicle: saline 119 % of control and 106 % of control | endpoint: mean survival time, dose: 0.39 mg/kg/injection, schedule: Q01DX009 (ip), vehicle: water 101 % of control and 110 % of control and 112 % of control | endpoint: mean survival time, dose: 0.5 mg/kg/injection, schedule: Q01DX005 (ip), vehicle: water 117 % of control and 108 % of control and 110 % of control | endpoint: mean survival time, dose: 0.5 mg/kg/injection, schedule: Q04DX003 (ip), vehicle: water 116 % of control and 98 % of control | endpoint: mean survival time, dose: 0.78 mg/kg/injection, schedule: Q01DX009 (ip), vehicle: saline 116 % of control | endpoint: mean survival time, dose: 0.78 mg/kg/injection, schedule: Q01DX009 (ip), vehicle: water 117 % of control and 120 % of control and 103 % of control | endpoint: mean survival time, dose: 1.0 mg/kg/injection, schedule: Q01DX005 (ip), vehicle: water 118 % of control and 112 % of control | endpoint: mean survival time, dose: 1.0 mg/kg/injection, schedule: Q03DX003 (ip), vehicle: saline 119 % of control | endpoint: mean survival time, dose: 1.0 mg/kg/injection, schedule: Q04DX003 (ip), vehicle: water 105 % of control | endpoint: mean survival time, dose: 1.08 mg/kg/injection, schedule: Q04DX003 (ip), vehicle: saline 120 % of control | endpoint: mean survival time, dose: 1.25 mg/kg/injection, schedule: Q07DX Z (oral), vehicle: clinical formulation 97 % of control | endpoint: mean survival time, dose: 1.25 mg/kg/injection, schedule: Q#B X Z (oral), vehicle: clinical formulation 102 % of control | endpoint: mean survival time, dose: 1.56 mg/kg/injection, schedule: Q01DX009 (ip), vehicle: saline 117 % of control | endpoint: mean survival time, dose: 1.56 mg/kg/injection, schedule: Q01DX009 (ip), vehicle: water 121 % of control and 106 % of control | endpoint: mean survival time, dose: 1.68 mg/kg/injection, schedule: Q01DX001 (ip), vehicle: water 124 % of control | endpoint: mean survival time, dose: 1.8 mg/kg/injection, schedule: Q04DX003 (ip), vehicle: saline 120 % of control | endpoint: mean survival time, dose: 2.0 mg/kg/injection, schedule: Q01DX005 (ip), vehicle: water 121 % of control and 124 % of control | endpoint: mean survival time, dose: 2.0 mg/kg/injection, schedule: Q03DX003 (ip), vehicle: saline 122 % of control | endpoint: mean survival time, dose: 2.0 mg/kg/injection, schedule: Q04DX003 (ip), vehicle: water 123 % of control and 102 % of control | endpoint: mean survival time, dose: 2.5 mg/kg/injection, schedule: Q01DX001 (ip), vehicle: water 118 % of control and 123 % of control and 112 % of control | endpoint: mean survival time, dose: 2.5 mg/kg/injection, schedule: Q07DX Z (oral), vehicle: clinical formulation 97 % of control | endpoint: mean survival time, dose: 2.5 mg/kg/injection, schedule: Q#B X Z (oral), vehicle: clinical formulation 94 % of control | endpoint: mean survival time, dose: 3.0 mg/kg/injection, schedule: Q01DX009 (ip), vehicle: saline 117 % of control | endpoint: mean survival time, dose: 3.0 mg/kg/injection, schedule: Q04DX003 (ip), vehicle: saline 115 % of control | endpoint: mean survival time, dose: 3.13 mg/kg/injection, schedule: Q01DX009 (ip), vehicle: water 117 % of control and 96 % of control | endpoint: mean survival time, dose: 4.0 mg/kg/injection, schedule: Q01DX005 (ip), vehicle: water 120 % of control and 105 % of control | endpoint: mean survival time, dose: 4.0 mg/kg/injection, schedule: Q01DX007 (ip), vehicle: saline 110 % of control | endpoint: mean survival time, dose: 4.0 mg/kg/injection, schedule: Q03DX003 (ip), vehicle: saline 116 % of control | endpoint: mean survival time, dose: 4.0 mg/kg/injection, schedule: Q04DX003 (ip), vehicle: water 100 % of control | endpoint: mean survival time, dose: 4.67 mg/kg/injection, schedule: Q01DX009 (ip), vehicle: water 108 % of control | endpoint: mean survival time, dose: 5.0 mg/kg/injection, schedule: Q01DX001 (ip), vehicle: water 120 % of control and 104 % of control | endpoint: mean survival time, dose: 5.0 mg/kg/injection, schedule: Q04DX003 (ip), vehicle: saline 120 % of control | endpoint: mean survival time, dose: 5.0 mg/kg/injection, schedule: Q07DX Z (oral), vehicle: clinical formulation 97 % of control | endpoint: mean survival time, dose: 5.0 mg/kg/injection, schedule: Q#B X Z (oral), vehicle: clinical formulation 97 % of control | endpoint: mean survival time, dose: 6.25 mg/kg/injection, schedule: Q01DX009 (ip), vehicle: saline 97 % of control | endpoint: mean survival time, dose: 8.0 mg/kg/injection, schedule: Q01DX001 (ip), vehicle: water 109 % of control | endpoint: mean survival time, dose: 8.0 mg/kg/injection, schedule: Q01DX009 (ip), vehicle: saline 100 % of control | endpoint: mean survival time, dose: 8.0 mg/kg/injection, schedule: Q04DX003 (ip), vehicle: saline 119 % of control | endpoint: mean survival time, dose: 8.0 mg/kg/injection, schedule: Q04DX003 (ip), vehicle: water 123 % of control | endpoint: mean survival time, dose: 10.0 mg/kg/injection, schedule: Q01DX001 (ip), vehicle: water 118 % of control and 112 % of control | endpoint: mean survival time, dose: 10.0 mg/kg/injection, schedule: Q07DX Z (oral), vehicle: clinical formulation 102 % of control | endpoint: mean survival time, dose: 10.0 mg/kg/injection, schedule: Q#B X Z (oral), vehicle: clinical formulation 108 % of control | endpoint: mean survival time, dose: 20.0 mg/kg/injection, schedule: Q01DX001 (ip), vehicle: water 89 % of control and 96 % of control | endpoint: mean survival time, dose: 20.0 mg/kg/injection, schedule: Q07DX Z (oral), vehicle: clinical formulation 100 % of control | endpoint: mean survival time, dose: 20.0 mg/kg/injection, schedule: Q#B X Z (oral), vehicle: clinical formulation 94 % of control | endpoint: mean survival time, dose: 40.0 mg/kg/injection, schedule: Q01DX001 (ip), vehicle: saline 62 % of control | endpoint: mean survival time, dose: 40.0 mg/kg/injection, schedule: Q07DX Z (oral), vehicle: clinical formulation 103 % of control | endpoint: mean survival time, dose: 40.0 mg/kg/injection, schedule: Q#B X Z (oral), vehicle: clinical formulation 103 % of control | endpoint: mean survival time, dose: 39.0 micrograms/kg/injection, schedule: Q01DX010 (oral), vehicle: saline 102 % of control | endpoint: mean survival time, dose: 78.0 micrograms/kg/injection, schedule: Q01DX010 (oral), vehicle: saline 102 % of control | endpoint: mean survival time, dose: 156.0 micrograms/kg/injection, schedule: Q01DX010 (oral), vehicle: saline 98 % of control | endpoint: mean survival time, dose: 313.0 micrograms/kg/injection, schedule: Q01DX010 (oral), vehicle: saline 102 % of control | endpoint: mean survival time, dose: 625.0 micrograms/kg/injection, schedule: Q01DX010 (oral), vehicle: saline 104 % of control | endpoint: mean survival time, dose: 1250.0 micrograms/kg/injection, schedule: Q01DX010 (oral), vehicle: saline 101 % of control | endpoint: median survival time, dose: 0.25 mg/kg/injection, schedule: Q01DX005 (iv), vehicle: water 112 % of control | endpoint: median survival time, dose: 0.5 mg/kg/injection, schedule: Q01DX005 (iv), vehicle: water 100 % of control | endpoint: median survival time, dose: 0.5 mg/kg/injection, schedule: Q04DX003 (ip), vehicle: water 99 % of control | endpoint: median survival time, dose: 1.0 mg/kg/injection, schedule: Q01DX005 (iv), vehicle: water 106 % of control | endpoint: median survival time, dose: 1.0 mg/kg/injection, schedule: Q04DX003 (ip), vehicle: water 99 % of control | endpoint: median survival time, dose: 2.0 mg/kg/injection, schedule: Q01DX005 (iv), vehicle: water 112 % of control | endpoint: median survival time, dose: 2.0 mg/kg/injection, schedule: Q04DX003 (ip), vehicle: water 100 % of control | endpoint: median survival time, dose: 4.0 mg/kg/injection, schedule: Q04DX003 (ip), vehicle: water 107 % of control | endpoint: median survival time, dose: 16.0 mg/kg/injection, schedule: Q04DX003 (ip), vehicle: water 109 % of control
